Test results published in patent publication US8921424B2, “Histone deacetylase inhibitors, process for preparation and uses thereof” (Zhejiang Hisun Pharmaceutical Co. Ltd., priority 2007, dated 2014).

Assays:
HL-60 [1] = test: Xenograft model, HL-60; format: in vivo, mouse; conditions: i.p.
MDAMB231 = test: Cell-based proliferation assay (SRB), MDAMB231; conditions: Homo sapiens, MDA-MB-231; Table 4
Procedure: (§1) Cell-Based Proliferation Assay for Determination of GI50 Values
(§2) A rapid multiwell plate assay using Sulforhodamine B (SRB) protein stain was adopted to evaluate the growth inhibitory effects of the compounds of the present invention. The screening panel of cancer cell lines includes Colo205 and HCT116 colon cancer cells, MDA-MB231 and MDA-MB435 chest cancer cells, A549 lung cancer cells, and Chinese hamster ovary cell line CHO, which were obtained from ATCC.
(§3) The cell line Colo205 is grown in RPMI 1640 medium containing 2 mM L-glutamine, 5% fetal bovine serum, and 1.0 mM sodium pyruvic acid. Cell lines A549 and MDA-MB231 are grown in RPMI 1640 medium containing 2 mM L-glutamine and 5% fetal bovine serum. The cell line MDA-MB435 is grown in DMEM medium containing 2 mM L-glutamine and 5% fetal bovine serum. The cell lines HCT 116 is grown in IMEM medium containing 2 mM L-glutamine and 5% fetal bovine serum. The CHO cell line, used as a normal control on toxicity, is grown in a special medium for cell line. For a typical screening experiment, A549 and Colo205 cells are inoculated into 96-well microtiter plates, with 100 μL per well, and 2000 and 5000 cells per well respectively for either cell line. MDA-MB435, HCT116, MDA-MB231 and CHO cells are also inoculated into 96-well microtiter plates, with 6000 cells per well. After cell inoculation, the microtiter plates are incubated at 37° C., 5% CO2, and 100% relative humidity for 24 hr in order to make cells adhere to well wall.
(§4) After 24 h incubation or time zero for drug addition, with each cell line 50 μl of cold 50% (w/v) TCA is added to wells used for control to fix cells in situ. Also at time zero, cells in other wells are treated with 100 μl of compound of different concentrations for 24 hr, 48 hr, and 72 hr respectively, with varying final compound concentration (0.1 μM, 1 μM, 5 μM 10 μM). For each treatment duration at each compound concentration, there are triplicate wells, as well as an array of control wells including a blank control well (cell culture medium only, no cells), a no-compound control well (adding same volume of cell culture medium but no compound), a positive control well (treated with Suberoylanilide hydroxamic acid (SAHA)), and normal cell well control (CHO cells). Following the addition of compounds, cell plates are incubated for 24 h, 48 h or 72 h per treatment group at 37° C., 5% CO2, and 100% relative humidity. The Treatment is then terminated by addition of cold TCA and incubation of 1 hr at 4° C. The supernatant is discarded, and all wells are washed five times with de-ioned water and air dried. Then each well is added with 100 μl sulforhodamine B (SRB) solution (0.4% (w/v) made in 1% acetic acid) and cell plates are incubated for 20-30 minutes at room temperature. After staining, unbound dye is removed by washing five times with 1% acetic acid and the plates are air dried. Bound stain is subsequently solubilized with 10 mM (200 μL) Tris base with the help of 5 min platform vibration or pipetting up and down, and the absorbance is read on an automated plate reader (M5 detection system, MD Group Ltd.) at a wavelength of 565 nm (calibrated zero reading of blank control at wavelength of 690 nm). The analytical software, XL-fit has been used to generate GI50 from a series of data thus obtained.

[2] = Microsomal stability and clearance; format: in vitro ADME, human, mouse; conditions: microsomal stability; Table 4
Procedure: Measure of Microsomal Stability and Clearance with Compounds of this Invention
Verapamil (positive control) and compound solution, both at 10 mM, are diluted 200 fold. There are six reaction time points in the experiment (0 min, 5 min, 15 min, 30 min, 45 min, and 60 min), and triplicate samples are used for each data point. There are controls for time zero and negative drug effect (negative control containing no incubation buffer or enzyme). For each compound or Verapamil sample, there are also samples treated with compound or Verapamil at concentrations of no positive effect (at 5 μM and 2.5 μM, respectively). Diluted positive control (Verapamil) and compound solution are mixed with pre-heated (37° C.) incubation buffer (100 mM potassium phosphate buffer, NADPH regeneration system solution B, NAPDH regeneration system solution A, HLM/MLM in Milli-Q ultrapure water), and incubated at 37° C. for 10 min. 100 μL of stop solution mixture is (containing 80% acetonitrile, and 20% DMSO, both of HPLC grade) is dispensed into wells of separate sampling plates into each well. At each reaction time point (0 min, 5 min, 15 min, 30 min, 45 min, and 60 min) 50 μL of reaction solution is taken from wells in the incubation plate and transferred to its corresponding well in the sampling plate, and mixed by pipetting up and down with stop solution already added there. The sampling plates are then covered, placed on ice, and centrifuged at 2,000 rpm at 4° C. for 15 min. 100 μL supernatant is then taken from each well to LC/MS analysis (or stored at 4° C. in refrigerator until analysis).
Data analysis: % remaining of compound is calculated by area of each time point with respect to time 0% remaining against time (min) curve is plotted using the first-phase exponential decay equation y=y0e(−kT) on the Prism 4.0. Results are shown in the format of TOP, K, t1/2 (min), R2 value and % remaining against time curve.

SKOV-3 [3] = test: Xenograft model, SKOV-3; format: in vivo, mouse; conditions: i.p.
SKOV-3 [4] = test: Cell-based proliferation assay (SRB), SKOV-3; conditions: Homo sapiens
Procedure: as §1, §2, §3, §4

HL-60 [5] = test: Cell-based proliferation assay (SRB), HL-60; conditions: Homo sapiens
Colo205 = test: Cell-based proliferation assay (SRB), Colo205; conditions: Homo sapiens
Procedure: as §1, §2, §3, §4

| GI50 (MDAMB231) [µM] | half-life [2] [h] | GI50 (SKOV-3 [4]; SK-OV-3, Table 3) [µM] | GI50 (HL-60 [5]; HL-60, Table 3) [µM] | GI50 (Colo205; COLO 205, Table 3) [µM] | GI50 (SKOV-3 [4]; SK-OV-3, Table 4) [µM] | GI50 (HL-60 [5]; HL-60, Table 4) [µM] | GI50 (Colo205; COLO 205, Table 4) [µM] | Compound | T/C(%) HL-60 (HL-60 [1]; 80 mg/kg, 10 days) | T/C(%) SKOV-3 (SKOV-3 [3]; 80 mg/kg, 20 days) | T/C(%) HL-60 (HL-60 [1]; 30 mg/kg, 10 days) | T/C(%) SKOV-3 (SKOV-3 [3]; 30 mg/kg, 20 days) | T/C(%) HL-60 (HL-60 [1]; 200 mg/kg, 15 days) | T/C(%) SKOV-3 (SKOV-3 [3]; 200 mg/kg, 21 days) |
| --- | --- | --- | --- | --- | --- | --- | --- | --- | --- | --- | --- | --- | --- | --- |
| 2.35 | 1.9 | 5.25 | 0.645 | 2.41 | 5.25 | 0.645 | 2.41 | CCCCc1nc2cc(/C=C/C(=O)NO)ccc2n1CCN(CC)CC [SB939, reference compound] | – | – | 51% (30,10) | >60% (30,20) | – | – |
| 3.5 | 1.8 | 5.46 | 3.51 | 4.23 | 5.46 | 3.51 | 4.23 | CCCCCNc1cc(/C=C/C(=O)NO)ccc1SCCN(CC)CC [Example 2, 3-(4-(2-(diethylamino)ethylthio)-3-(pentylamino)phenyl)-N-hydroxy-acrylamide] | – | – | – | – | 40% (200,15) | 45% (200,21) |

| Compound | GI50 (MDAMB231) [µM] | half-life [2] [h] | GI50 (SKOV-3 [4]; SK-OV-3, Table 3) [µM] | GI50 (HL-60 [5]; HL-60, Table 3) [µM] | GI50 (Colo205; COLO 205, Table 3) [µM] | GI50 (SKOV-3 [4]; SK-OV-3, Table 4) [µM] | GI50 (HL-60 [5]; HL-60, Table 4) [µM] | GI50 (Colo205; COLO 205, Table 4) [µM] | T/C(%) HL-60 (HL-60 [1]; 80 mg/kg, 10 days) | T/C(%) SKOV-3 (SKOV-3 [3]; 80 mg/kg, 20 days) | T/C(%) HL-60 (HL-60 [1]; 30 mg/kg, 10 days) | T/C(%) SKOV-3 (SKOV-3 [3]; 30 mg/kg, 20 days) | T/C(%) HL-60 (HL-60 [1]; 200 mg/kg, 15 days) | T/C(%) SKOV-3 (SKOV-3 [3]; 200 mg/kg, 21 days) |
| --- | --- | --- | --- | --- | --- | --- | --- | --- | --- | --- | --- | --- | --- | --- |
| O=C(CCCCCCC(=O)Nc1ccccc1)NO [SAHA, suberoylanilide hydroxamic acid, reference compound] | 5.1 | 1.6 | 3.56 | 2 | 3.15 | – | – | – | 45% (80,10) | >60% (80,20) | – | – | – | – |
